Columns and labels:
Conditions in all cases: 48 h
NOMO1 [1] = experiment: cell viability relative to DMSO control; higher = less cytotoxic
Method in brief: (§1)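 Leukemia cells (NOMO1 or SEM, 500 cells/well; P12-Ichikawa, 1000 cells/well) were seeded in 5 μl in 1536-well plates after at least four passages of adaptation to each medium. They received library compounds in DMSO by pin dosing, 11 threefold points from 47 μM to 0.79 nM. Luminescence with CellTiter-Glo One was read after 48 h at 37°C. Viability is stated per plate relative to DMSO wells, with cell-free wells as background.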

P12-Ichikawa [2] = experiment: as above
Method in brief: as §1

SEM cells [3] = experiment: as above
Method in brief: as §1

NOMO1 [4] = experiment: AUC of viability dose-response curve (% viability x log10 dose units); higher = less sensitive
Method in brief: (§2)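 Leukemia cells adapted to each medium were seeded in 1536-well plates (500 or 1000 cells/well). They were dosed with library compounds in DMSO at 11 threefold doses, 47 μM to 0.79 nM, for 48 h at 37°C. CellTiter-Glo One luminescence was normalised per plate to DMSO and cell-free wells. Area under the curve was integrated by trapezoidal rule over log10 doses on a four-parameter log-logistic fit; curves exceeding full viability were scaled and curves failing quality control removed.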

P12-Ichikawa [5] = experiment: as above
Method in brief: as §2

SEM cells [6] = experiment: as above
Method in brief: as §2

Cc1ccc(NC(=O)Nc2cc(C(F)(F)F)ccc2F)cc1Nc1ccc2c(c1)NC(=O)/C2=C\c1ccc[nH]1
cell viability [%]
Conditions	NOMO1 [1]	P12-Ichikawa [2]	SEM cells [3]
HPLM + 10% dialyzed FBS, 0.000781 µM	–	122	108
HPLM + 10% dialyzed FBS, 0.00234 µM	–	123	131
HPLM + 10% dialyzed FBS, 0.00702 µM	–	133	121
HPLM + 10% dialyzed FBS, 0.0211 µM	–	133	115
HPLM + 10% dialyzed FBS, 0.0632 µM	–	131	118
HPLM + 10% dialyzed FBS, 0.19 µM	–	143	127
HPLM + 10% dialyzed FBS, 0.569 µM	–	139	131
HPLM + 10% dialyzed FBS, 1.71 µM	–	134	120
HPLM + 10% dialyzed FBS, 5.12 µM	–	128	111
HPLM + 10% dialyzed FBS, 15.4 µM	–	137	87.6
HPLM + 10% dialyzed FBS, 46.1 µM	–	70.3	16.2
RPMI 5 mM glucose + 10% FBS, 0.000781 µM	108	–	–
RPMI 5 mM glucose + 10% FBS, 0.00234 µM	126	–	–
RPMI 5 mM glucose + 10% FBS, 0.00702 µM	118	–	–
RPMI 5 mM glucose + 10% FBS, 0.0211 µM	124	–	–
RPMI 5 mM glucose + 10% FBS, 0.0632 µM	133	–	–
RPMI 5 mM glucose + 10% FBS, 0.19 µM	139	–	–
RPMI 5 mM glucose + 10% FBS, 0.569 µM	149	–	–
RPMI 5 mM glucose + 10% FBS, 1.71 µM	161	–	–
RPMI 5 mM glucose + 10% FBS, 5.12 µM	136	–	–
RPMI 5 mM glucose + 10% FBS, 15.4 µM	132	–	–
RPMI 5 mM glucose + 10% FBS, 46.1 µM	40.4	–	–
RPMI 5 mM glucose + 10% dialyzed FBS, 0.000781 µM	116	–	120
RPMI 5 mM glucose + 10% dialyzed FBS, 0.00234 µM	124	–	116
RPMI 5 mM glucose + 10% dialyzed FBS, 0.00702 µM	140	–	122
RPMI 5 mM glucose + 10% dialyzed FBS, 0.0211 µM	140	–	111
RPMI 5 mM glucose + 10% dialyzed FBS, 0.0632 µM	149	–	138
RPMI 5 mM glucose + 10% dialyzed FBS, 0.19 µM	150	–	139
RPMI 5 mM glucose + 10% dialyzed FBS, 0.569 µM	149	–	124
RPMI 5 mM glucose + 10% dialyzed FBS, 1.71 µM	160	–	124
RPMI 5 mM glucose + 10% dialyzed FBS, 5.12 µM	154	–	102
RPMI 5 mM glucose + 10% dialyzed FBS, 15.4 µM	115	–	76.2
RPMI 5 mM glucose + 10% dialyzed FBS, 46.1 µM	28.1	–	4.96

AUC of viability dose-response curve
Conditions	NOMO1 [4]	P12-Ichikawa [5]	SEM cells [6]
HPLM + 10% dialyzed FBS	455	466	439
RPMI 5 mM glucose + 10% FBS	460	462	440
RPMI 5 mM glucose + 10% dialyzed FBS	449	454	428

CC1=CC=C2\N=C/3N(CC[C@@]3(O)C(=O)C2=C1)C4=CC=CC=C4
cell viability [%]
Conditions	NOMO1 [1]	P12-Ichikawa [2]	SEM cells [3]
HPLM + 10% dialyzed FBS, 0.000781 µM	102	97.2	89.5
HPLM + 10% dialyzed FBS, 0.00234 µM	103	98.3	88.6
HPLM + 10% dialyzed FBS, 0.00702 µM	96.2	94.9	97.7
HPLM + 10% dialyzed FBS, 0.0211 µM	104	94.6	87.3
HPLM + 10% dialyzed FBS, 0.0632 µM	104	99.3	94.5
HPLM + 10% dialyzed FBS, 0.19 µM	95.4	88.8	93
HPLM + 10% dialyzed FBS, 0.569 µM	105	92.1	96.6
HPLM + 10% dialyzed FBS, 1.71 µM	88.3	95.3	95
HPLM + 10% dialyzed FBS, 5.12 µM	74	82	70.5
HPLM + 10% dialyzed FBS, 15.4 µM	88.9	86.6	85.8
HPLM + 10% dialyzed FBS, 46.1 µM	91.3	89.5	93
RPMI 5 mM glucose + 10% FBS, 0.000781 µM	82	84.8	119
RPMI 5 mM glucose + 10% FBS, 0.00234 µM	88.2	82.3	120
RPMI 5 mM glucose + 10% FBS, 0.00702 µM	93.6	92	98.3
RPMI 5 mM glucose + 10% FBS, 0.0211 µM	85.4	90.2	120
RPMI 5 mM glucose + 10% FBS, 0.0632 µM	79.3	92.4	108
RPMI 5 mM glucose + 10% FBS, 0.19 µM	79.5	89.2	121
RPMI 5 mM glucose + 10% FBS, 0.569 µM	84	89	97
RPMI 5 mM glucose + 10% FBS, 1.71 µM	84.4	90.2	94.9
RPMI 5 mM glucose + 10% FBS, 5.12 µM	75.8	83.8	92.4
RPMI 5 mM glucose + 10% FBS, 15.4 µM	92.2	86.7	117
RPMI 5 mM glucose + 10% FBS, 46.1 µM	85.9	86.9	107
RPMI 5 mM glucose + 10% dialyzed FBS, 0.000781 µM	94.5	95.4	86.8
RPMI 5 mM glucose + 10% dialyzed FBS, 0.00234 µM	95.1	86	83.2
RPMI 5 mM glucose + 10% dialyzed FBS, 0.00702 µM	87.5	84.1	85.6
RPMI 5 mM glucose + 10% dialyzed FBS, 0.0211 µM	86.7	83.1	95.7
RPMI 5 mM glucose + 10% dialyzed FBS, 0.0632 µM	101	84.5	92.6
RPMI 5 mM glucose + 10% dialyzed FBS, 0.19 µM	92	81.1	76.6
RPMI 5 mM glucose + 10% dialyzed FBS, 0.569 µM	86.7	90	101
RPMI 5 mM glucose + 10% dialyzed FBS, 1.71 µM	88.9	82.1	78.3
RPMI 5 mM glucose + 10% dialyzed FBS, 5.12 µM	79.2	81.9	70.8
RPMI 5 mM glucose + 10% dialyzed FBS, 15.4 µM	84.9	76.4	87.2
RPMI 5 mM glucose + 10% dialyzed FBS, 46.1 µM	82.9	78.7	94.5

AUC of viability dose-response curve
Conditions	NOMO1 [4]	P12-Ichikawa [5]	SEM cells [6]
HPLM + 10% dialyzed FBS	452	442	431
RPMI 5 mM glucose + 10% FBS	403	420	438
RPMI 5 mM glucose + 10% dialyzed FBS	425	400	413

O=C(O)c1ccc(-c2c[nH]c3ncc(-c4ccccc4)cc23)cc1C1CCCC1
cell viability [%]
Conditions	NOMO1 [1]	P12-Ichikawa [2]	SEM cells [3]
HPLM + 10% dialyzed FBS, 0.000781 µM	114	108	98
HPLM + 10% dialyzed FBS, 0.00234 µM	120	113	103
HPLM + 10% dialyzed FBS, 0.00702 µM	121	123	113
HPLM + 10% dialyzed FBS, 0.0211 µM	130	116	113
HPLM + 10% dialyzed FBS, 0.0632 µM	134	122	118
HPLM + 10% dialyzed FBS, 0.19 µM	134	119	125
HPLM + 10% dialyzed FBS, 0.569 µM	131	120	99
HPLM + 10% dialyzed FBS, 1.71 µM	138	122	108
HPLM + 10% dialyzed FBS, 5.12 µM	126	117	82.4
HPLM + 10% dialyzed FBS, 15.4 µM	134	80.8	63.5
HPLM + 10% dialyzed FBS, 46.1 µM	110	92.6	66.6
RPMI 5 mM glucose + 10% FBS, 0.000781 µM	118	119	111
RPMI 5 mM glucose + 10% FBS, 0.00234 µM	108	131	110
RPMI 5 mM glucose + 10% FBS, 0.00702 µM	131	113	111
RPMI 5 mM glucose + 10% FBS, 0.0211 µM	123	126	109
RPMI 5 mM glucose + 10% FBS, 0.0632 µM	127	134	121
RPMI 5 mM glucose + 10% FBS, 0.19 µM	123	133	113
RPMI 5 mM glucose + 10% FBS, 0.569 µM	130	138	101
RPMI 5 mM glucose + 10% FBS, 1.71 µM	132	131	91.8
RPMI 5 mM glucose + 10% FBS, 5.12 µM	113	129	69.8
RPMI 5 mM glucose + 10% FBS, 15.4 µM	115	67	47.1
RPMI 5 mM glucose + 10% FBS, 46.1 µM	117	105	43.2
RPMI 5 mM glucose + 10% dialyzed FBS, 0.000781 µM	108	114	114
RPMI 5 mM glucose + 10% dialyzed FBS, 0.00234 µM	127	124	116
RPMI 5 mM glucose + 10% dialyzed FBS, 0.00702 µM	112	126	119
RPMI 5 mM glucose + 10% dialyzed FBS, 0.0211 µM	133	130	138
RPMI 5 mM glucose + 10% dialyzed FBS, 0.0632 µM	137	132	114
RPMI 5 mM glucose + 10% dialyzed FBS, 0.19 µM	126	125	115
RPMI 5 mM glucose + 10% dialyzed FBS, 0.569 µM	125	138	123
RPMI 5 mM glucose + 10% dialyzed FBS, 1.71 µM	132	133	101
RPMI 5 mM glucose + 10% dialyzed FBS, 5.12 µM	120	121	65.3
RPMI 5 mM glucose + 10% dialyzed FBS, 15.4 µM	105	73.6	44.1
RPMI 5 mM glucose + 10% dialyzed FBS, 46.1 µM	119	96.3	35.3

AUC of viability dose-response curve
Conditions	NOMO1 [4]	P12-Ichikawa [5]	SEM cells [6]
HPLM + 10% dialyzed FBS	466	458	435
RPMI 5 mM glucose + 10% FBS	471	453	404
RPMI 5 mM glucose + 10% dialyzed FBS	468	450	400

— the supplement of paper PMC11451515
